In general, IC50 refers to the concentration needed to halve the response being measured.

SMILES strings stand for the structures. Where two headings read alike, the source gives them in different places.

One assay has as its target T1, p210^bcr-abl (Homo sapiens, UniProt P00519).
T1 construct: immune complexes containing ^32P-labeled p210^bcr-abl were collected on protein Sepharose beads; BCR (N-terminal part of the breakpoint cluster region protein, natural fusion partner); endogenous in cells; host or cells: K562 cells (lysate, immunoprecipitated on Protein A-Sepharose); the other entry of the earlier key: BCR (P11274, Breakpoint cluster region protein)
The experiment in a line: Inhibition of in vitro auto-phosphorylation of p210^bcr-abl, immune-complex kinase assay. To be noted: immune complex kinase assay, 3 experiments, read-out: Enzyme Assays IC50 (μM) p210bcl-abl in vitro phosphorylation. It is filed as biochemical. The protocol: Inhibition of in vitro auto-phosphorylation of p210^bcr-abl in immune-complex kinase assays were conducted as follows. K562 cell line cells were washed twice in […]. The washed cells were lysed in PLC lysis buffer 150 mM HEPES (pH 7.5), 150 mM NaCl, 10% (v/v) glycerol, 1% (v/v) Triton X-100, 1.5 mM MgCl2, 1 mM EGTA. 10 μg/ml leupeptin, 10 μg/ml aprotinin, 1 mM sodium orthovanadate. 10 mM sodium pyrophosphate, 100 mM sodium fluoride and 1 mM phenylmethyl sulfonyl fluoride| Cell lysates were centrifuged at 100,000 g for 15 minutes and the supernatant collected. Protein concentrations of the clarified supernatants were determined by the Bradford Protein Assay, and the same quantity of protein was immunoprecipitated from control (vehicle-treated) and drug-treated cells. Cell lysates were incubated and gently rocked at 4° C. for 4 hours overnight with antibodies. Immune complexes were collected by incubation with Protein A-Sepharose beads (Pharmacia, Piscataway N.J.) and immune complexes (beads) were washed three times with HNTG buffer [20 mM HEPES (pH 7.5), 10% glycerol, 0.1% Triton X-100, 150 mM NaCl and 1 mM sodium orthovanadate] to remove unbound material. Bound proteins were boiled for 5 minutes in 2×SDS sample buffer (63 mM Tris-HCl, ph 6.8; 10% glycerol; 2% SDS; 0.0025% bromophenol blue: and […] 2 mercaptoethanol) prior to SDS-PAGE. Proteins were resolved on 4-20% gradient mini gels from Novex Experimental Technology (San Diego, Calif.).
After SDS-PAGE, proteins were electrophoretically transferred onto Immobilon polyvinylidene difluoride (PVDF) membranes (Millipore, Bedford, Mass.) at 250 mA for 4 hours at 4° C. using 2× Tris glycine transfer buffer (50 mM Tris, glycine), 20% methanol and 0.1% SDS. Residual binding sites on the membrane were blocked by incubation in TTS (20 mM Tris pH 7.4, 0.9% NaCl and 0.05% Tween 20) containing 3% BSA overnight at 4° C. or for 4 hours at room temperature. Blots were incubated for 1-1.5 hours with TTS containing 0.3% BSA with 1 μg/ml of mouse anti-P-Tyr, 2 μg/ml of mouse anti-Grb2 or 1 μg/ml of rabbit anti-She antibody. Blots were washed three times for 6 minutes each with TTS containing 0.3% BSA and probed with a 1:1000 dilution of rabbit anti-mouse antibody or directly with [^125I]Protein A (Amersham, Arlington Heights, Ill.) in blocking solutions. Proteins were visualized by autoradiography (exposed for 1-2 days at −70° C.).
The p210^bcr-abl, protein immunoprecipitates were washed twice with HTNG buffer Immunoprecipitates were washed once with 50 mM Tris (pH 7.0) and distributed to each reaction in 20 μl of 20 mM PIPES [piperazine-N,N′-bis(ethanesulfonic acid)] (pH 7.0)−20 mM MnCl2. Then, 10 μl of compounds made according to the present invention at desired concentrations from working stock solution prepared in 20 mM PIPEs (pH 7.0)−20 mM MnCl2 were added to each reaction tube. Reactions were initiated with the addition of 10 μl of [γ-^33P]ATP (10 μCi per sample, 3000 Ci/mmol; Amersham), incubated for 20 minutes at 30° C., stopped by addition of 10 μl of 5×SDS sample buffer, heated at 100° C. for 5 minutes, and analyzed on 4-20% SDS-PAGE and by autoradiography.
To assess the effect of drugs added in vitro on the state of p210^bcr-abl in the immune complexes, K562 cells were labeled with ^32P, lysed in PLC buffer and immune complexes containing ^32P-labeled p210^bcr-abl were collected on protein Sepharose beads and beads were washed four times with HNTG buffer. Immune complexes were divided into several tubes in 30 μl of PLC buffer in the presence of compounds made as described herein.

A further assay relates to K562 cells. As to the kind of experiment: K562 cell culture and growth assay, 6 day MTT. Type of assay: cell-based, human. To be noted: K562, 6 days, 4 or more experiments. An outline of the steps: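 Cells (2×10^3/well) in RPMI with 10% fetal calf serum incubated with increasing compound concentrations in DMSO, with DMSO-matched controls. Growth quantitated after 6 days by MTT reduction to formazan.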

The mark [1] stands for this setting: Table 10, mean ± S.E., read-out: IC50 (μM) 6dMTT.
Where [2] appears, read: Homo sapiens, 144 h, Table 8, mean+S.E., read-out: IC50 (μM) 6 dMTT.
[3] abbreviates: Homo sapiens, 144 h, Table 10, mean ± S.E., read-out: IC50 (μM) 6dMTT.

T1 sequence (P00519 with tags, fused parts or gaps): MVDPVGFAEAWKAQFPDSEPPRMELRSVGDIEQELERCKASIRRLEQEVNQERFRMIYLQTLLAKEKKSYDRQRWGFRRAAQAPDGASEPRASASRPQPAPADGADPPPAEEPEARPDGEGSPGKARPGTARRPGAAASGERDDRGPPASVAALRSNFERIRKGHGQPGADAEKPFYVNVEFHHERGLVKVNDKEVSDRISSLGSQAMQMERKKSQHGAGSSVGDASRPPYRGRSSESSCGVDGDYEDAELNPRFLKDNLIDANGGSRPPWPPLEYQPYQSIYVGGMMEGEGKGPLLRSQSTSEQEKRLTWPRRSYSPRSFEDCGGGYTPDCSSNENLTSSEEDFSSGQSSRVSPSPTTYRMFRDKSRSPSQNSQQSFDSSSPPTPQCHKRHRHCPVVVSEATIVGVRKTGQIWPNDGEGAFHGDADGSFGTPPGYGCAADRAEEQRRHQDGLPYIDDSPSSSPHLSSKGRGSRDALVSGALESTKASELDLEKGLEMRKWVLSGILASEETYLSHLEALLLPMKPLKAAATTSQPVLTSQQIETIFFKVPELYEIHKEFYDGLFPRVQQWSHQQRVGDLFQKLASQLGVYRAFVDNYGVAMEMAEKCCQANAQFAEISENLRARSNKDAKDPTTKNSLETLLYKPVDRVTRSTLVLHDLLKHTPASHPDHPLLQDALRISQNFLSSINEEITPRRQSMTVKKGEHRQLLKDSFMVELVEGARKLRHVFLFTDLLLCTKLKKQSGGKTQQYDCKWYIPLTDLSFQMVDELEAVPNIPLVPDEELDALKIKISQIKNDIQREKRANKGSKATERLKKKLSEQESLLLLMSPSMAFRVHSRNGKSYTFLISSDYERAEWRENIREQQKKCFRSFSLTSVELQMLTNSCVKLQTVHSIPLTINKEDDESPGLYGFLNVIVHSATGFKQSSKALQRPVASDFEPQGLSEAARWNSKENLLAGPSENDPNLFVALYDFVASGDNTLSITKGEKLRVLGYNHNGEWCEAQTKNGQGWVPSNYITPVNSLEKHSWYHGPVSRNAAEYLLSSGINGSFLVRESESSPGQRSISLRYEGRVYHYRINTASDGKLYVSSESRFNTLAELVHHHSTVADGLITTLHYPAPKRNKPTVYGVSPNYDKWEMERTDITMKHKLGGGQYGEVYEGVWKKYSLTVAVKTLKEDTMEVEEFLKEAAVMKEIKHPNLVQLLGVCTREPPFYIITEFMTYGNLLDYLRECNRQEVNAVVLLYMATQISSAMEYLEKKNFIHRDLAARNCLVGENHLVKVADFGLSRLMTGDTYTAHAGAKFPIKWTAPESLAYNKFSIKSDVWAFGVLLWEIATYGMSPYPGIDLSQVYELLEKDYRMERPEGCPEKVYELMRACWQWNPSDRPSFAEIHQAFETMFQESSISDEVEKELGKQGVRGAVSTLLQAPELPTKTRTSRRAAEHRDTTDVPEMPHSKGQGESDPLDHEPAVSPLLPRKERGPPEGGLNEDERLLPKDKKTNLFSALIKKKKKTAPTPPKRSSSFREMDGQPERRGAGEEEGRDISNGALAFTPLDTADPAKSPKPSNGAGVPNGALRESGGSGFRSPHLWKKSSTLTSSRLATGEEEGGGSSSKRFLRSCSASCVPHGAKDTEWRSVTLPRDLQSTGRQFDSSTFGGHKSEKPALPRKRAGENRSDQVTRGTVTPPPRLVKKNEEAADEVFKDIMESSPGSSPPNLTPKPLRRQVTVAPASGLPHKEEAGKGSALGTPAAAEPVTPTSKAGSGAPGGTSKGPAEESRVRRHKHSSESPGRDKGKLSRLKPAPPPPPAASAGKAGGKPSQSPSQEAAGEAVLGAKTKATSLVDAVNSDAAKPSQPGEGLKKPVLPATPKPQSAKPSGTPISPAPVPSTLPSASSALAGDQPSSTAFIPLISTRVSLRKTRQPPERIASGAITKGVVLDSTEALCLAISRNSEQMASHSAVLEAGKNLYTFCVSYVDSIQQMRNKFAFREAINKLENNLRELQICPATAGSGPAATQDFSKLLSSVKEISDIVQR

Consider `COC(=O)c1ccc(/C=C/C2=CC(=O)C=CC2=O)cc1` [COOCH3 / 2,5-quinoyl / CH═CH / H], for which the IC50 at p210^bcr-abl (Table 10, mean ± S.E.) worked out at 5.47 ± 0.22 µM; in the assay with K562 cells (setting [1]) it was 17.8 ± 0.22 µM.
For the compound `CC(C)C(OC(=O)c1ccc(NCC2=CC(=O)C=CC2=O)cc1)C(C)C` [COOCH[CH(CH3)2]2 / H / 2,5-quinoyl], the 50% inhibitory concentration (IC50) stood at 34 ± 9.02 µM on p210^bcr-abl (Table 9, mean ± S.E.) and 38.8 ± 12.8 µM with K562 cells (Table 9, mean ± S.E., read-out: IC50 (μM) 6dMTT).
Consider `CC(C)OC(=O)c1ccc(NCc2cc(O)ccc2O)cc1` [COOCH(CH3)2 / H / H], for which the IC50 is 4.45 µM at p210^bcr-abl (Table 8, mean+S.E.) and 15.1 µM in the assay with K562 cells (setting [2]).
With `CC(C)OC(=O)c1ccc(CCC2=CC(=O)C=CC2=O)cc1` [COOCH(CH3)2 / 2,5-quinoyl / CH2—CH2 / H], the 50% inhibitory concentration (IC50) at p210^bcr-abl (Table 10, mean ± S.E.) came to 5.26 ± 2.09 µM; in the assay with K562 cells (setting [1]), 19.9 ± 0.5 µM.
Turning to `O=C(OCC12CC3CC(CC(C3)C1)C2)c1ccc(NCc2cc(O)ccc2O)cc1` [Compound 7, 4′-4′-adamantylmethylbenzoate-1′-N-2,5-dihydroxybenzylamine], the half-maximal inhibitory concentration (IC50) on p210^bcr-abl (Table 8, mean+S.E.) worked out at 12.6 µM; with K562 cells (setting [2]) it was 12.8 µM.
Consider `O=C(OCc1ccccc1)c1ccc(NCc2cc(O)ccc2O)cc1` [COOCH2Ph / H / H], for which the IC50 turned out to be 36.6 µM on p210^bcr-abl (Table 8, mean+S.E.) and 12 µM in the assay with K562 cells (setting [2]).
In the same order, the values of `O=C(OC12CC3CC(CC(C3)C1)C2)c1ccc(NCc2cc(O)ccc2O)cc1` [Compound 6, 4′-adamantylbenzoate-1′-N-2,5-dihydroxybenzylamine] are 13.6 µM and 9.75 µM.
Regarding `CC(C)OC(=O)c1ccc(NCc2cc(O)ccc2O)cc1Cl` [COOCH(CH3)2 / Cl / H, 5′-chloro-4′-isopropylbenzoate-1′-N-2,5-dihydroxybenzylamine], the IC50 on p210^bcr-abl (Table 8, mean+S.E.) came out at 1.22 µM; in the assay with K562 cells (Table 8, mean+S.E., read-out: IC50 (μM) 6 dMTT) it was 21.6 µM.
For `CC(C)C(OC(=O)c1ccc(NCc2cc(O)ccc2O)cc1)C(C)C` [COOCH[CH(CH3)2]2 / H / H], the IC50 on p210^bcr-abl (Table 8, mean+S.E.) is 11.1 µM; in the assay on K562 cells (setting [2]), 9.98 µM.
In the same order, the values of `CC(C)(C)OC(=O)c1ccc(NCc2cc(O)ccc2O)cc1` [COOC(CH3)3 / H / H, 4′-t-butylbenzoate-1′-N-2,5-dihydroxybenzylamine] are 7.72 µM and 16.4 µM.
`CC(C)OC(=O)c1ccc(CCC2=CC(=O)C(Br)=CC2=O)cc1`: the IC50 at p210^bcr-abl (Table 10, mean ± S.E.) came to 4.19 ± 0.07 µM; with K562 cells (setting [1]), 59.8 ± 0.44 µM.
Regarding `COC(=O)c1ccc(C=Cc2cc(O)ccc2O)cc1` [COOCH3 / 2,5-dihydoxyphenyl / CH═CH / H], the IC50 on p210^bcr-abl (Table 10, mean ± S.E.) was determined as 19.9 ± 9.94 µM; with K562 cells (setting [3]) it was 9.72 ± 0.49 µM.
Regarding `COC(=O)c1ccc(CCc2cc(O)c(Br)cc2O)cc1`, the IC50 at p210^bcr-abl (Table 10, mean ± S.E.) amounted to 4.42 ± 0.24 µM; with K562 cells (setting [3]), 7 ± 0.5 µM.
In the same order, the values of `COC(=O)c1ccc(CCC2=CC(=O)C(Br)=CC2=O)cc1` are 3.52 ± 0.16 µM and 36.5 ± 1 µM.

The record behind these values is US6943191B1, “Disubstituted lavendustin A analogs and pharmaceutical composition comprising the analogs” (The United States of America as represented by the …, priority 1998, dated 2005).
